In ChEMBL document CHEMBL5303304, “EUbOPEN Chemogenomics Library - IncuCyte” (2023):

What was measured:
Assay type in all cases: toxicity, cell-based
Fibroblast = assay: Incucyte cell viability with human fibroblast; settings: 10 µM, compound concentration 10 uM
U2OS = assay: Incucyte cell viability with U2OS; settings: human, 10 µM, compound concentration 10 uM
HEK-293T = assay: Incucyte cell viability with HEK293T; settings: human, 10 µM, compound concentration 10 uM
Also: unitless GR value; below 1 slowed growth and below 0 cell loss.

SMILES | Growth Rate (Fibroblast; 6 h, replicate number 2) | Growth Rate (Fibroblast; 12 h, replicate number 2) | Growth Rate (Fibroblast; 18 h, replicate number 2) | Growth Rate (Fibroblast; 24 h, replicate number 2) | Growth Rate (U2OS; 0 h, replicate number 1) | Growth Rate (U2OS; 6 h, replicate number 1) | Growth Rate (U2OS; 12 h, replicate number 1) | Growth Rate (U2OS; 12 h, replicate number 2) | Growth Rate (U2OS; 18 h, replicate number 1) | Growth Rate (U2OS; 24 h, replicate number 1) | Growth Rate (U2OS; 24 h, replicate number 2) | Growth Rate (HEK-293T; 0 h, replicate number 2) | Growth Rate (HEK-293T; 6 h, replicate number 1) | Growth Rate (HEK-293T; 12 h, replicate number 1) | Growth Rate (Fibroblast; 0 h, replicate number 2) | Growth Rate (U2OS; 6 h, replicate number 2) | Growth Rate (U2OS; 18 h, replicate number 2) | Growth Rate (Fibroblast; 6 h, replicate number 1) | Growth Rate (Fibroblast; 18 h, replicate number 1) | Growth Rate (Fibroblast; 0 h, replicate number 1) | also measured
O=C(CNC(=O)c1ccc(-c2ccccc2)cc1)NC1CCCc2ccccc21 (stereo not given) | 0.27 | 0.26 | 0.42 | 0.7 | 0.77 | 0.38 | 0.67 | 0.9 | 0.43 | 0.55 | 0.93 | -0.65 | 0.23 | -0.08 | – | – | – | – | – | – | Growth Rate (HEK-293T; 6 h, replicate number 2): 0.73; Growth Rate (HEK-293T; 12 h, replicate number 2): 0.41; Growth Rate (HEK-293T; 18 h, replicate number 1): 0.26; Growth Rate (HEK-293T; 18 h, replicate number 2): 0.38; Growth Rate (HEK-293T; 24 h, replicate number 1): 0.39; Growth Rate (HEK-293T; 24 h, replicate number 2): 0.46
COc1ccc(N(C(=O)Nc2c(C)cccc2C)c2cc(Nc3ccc(N4CCN(C)CC4)cc3)ncn2)c(OC)c1 | – | – | – | – | 0.61 | 0.85 | 0.77 | 0.57 | 0.25 | -0.25 | -0.2 | 1 | – | – | -0.56 | 0.97 | 0.14 | – | – | – | –
O=C(NCc1ccc(F)cc1)C1CCN(S(=O)(=O)c2cc(Cl)cc(Cl)c2)CC1 | – | 0.3 | 0.46 | 0.67 | – | 0.81 | 0.86 | 0.98 | 0.9 | – | 0.98 | -0.42 | 0.66 | 0.95 | 0.31 | 0.72 | 0.98 | 0.84 | 0.84 | – | Growth Rate (Fibroblast; 12 h, replicate number 1): 0.58; Growth Rate (Fibroblast; 24 h, replicate number 1): 0.76; Growth Rate (U2OS; 0 h, replicate number 2): 0.76; Growth Rate (HEK-293T; 18 h, replicate number 1): 0.7; Growth Rate (HEK-293T; 24 h, replicate number 1): 0.78
CN(C)C(=O)Cn1cc(-c2ccc(-c3nnc4ccccn34)cc2)cn1 | – | 0.97 | 0.9 | 0.99 | 0.43 | 0.9 | 0.76 | 0.88 | – | 0.67 | 0.99 | 0.91 | 0.81 | 0.91 | -0.65 | – | 0.96 | 0.9 | – | – | –
COCCCS(=O)(=O)c1cc(C)c(-c2ccc(F)c3c2CC[C@H]3Oc2ccc3c(c2)OC[C@H]3CC(=O)O)c(C)c1 | – | – | – | – | – | 0.63 | – | 0.95 | 0.79 | – | 0.9 | -0.02 | 0.78 | 0.83 | 0.7 | 0.65 | 0.88 | 1 | – | – | Growth Rate (U2OS; 0 h, replicate number 2): -1; Growth Rate (HEK-293T; 18 h, replicate number 1): 0.82; Growth Rate (HEK-293T; 24 h, replicate number 1): 0.81
CC[C@@H](C(=O)OC)n1c(=O)c2ccccc2n(Cc2cn(C)c3cccc(C)c23)c1=O | -0.9 | 0.49 | 0.48 | – | – | – | – | 0.97 | – | 0.92 | 0.9 | -0.42 | – | – | – | – | 0.96 | 0.75 | 0.75 | -1 | Growth Rate (Fibroblast; 12 h, replicate number 1): 1; Growth Rate (U2OS; 0 h, replicate number 2): 0.16
COc1cc(C)c(S(=O)(=O)N(C)CCOCC(=O)N(C)[C@H]2CCC[C@@H](N3CCN(C)CC3)C2)c(C)c1.O=C(O)C(O)C(O)C(=O)O | -0.57 | 0.57 | 0.67 | 0.92 | – | – | – | 0.86 | – | – | – | 0.26 | – | – | – | – | – | 0.87 | 0.93 | -1 | –
CCc1nc(C2CCC2)n2nc(-c3ccccc3)[nH]c(=O)c12 | -0.72 | -0.29 | 0.5 | 0.86 | 0.68 | 0.84 | – | – | – | – | – | -0.05 | -0.09 | 0.44 | – | – | 0.95 | – | – | – | Growth Rate (HEK-293T; 12 h, replicate number 2): 0.76; Growth Rate (HEK-293T; 18 h, replicate number 1): 0.64; Growth Rate (HEK-293T; 18 h, replicate number 2): 0.76; Growth Rate (HEK-293T; 24 h, replicate number 1): 0.75; Growth Rate (HEK-293T; 24 h, replicate number 2): 0.91
CO[C@@H](C)CN1CC[C@]2(C)c3cc(O)ccc3C[C@H]1C2(C)C.Cl | – | 0.89 | – | – | 0.91 | 0.69 | 0.82 | – | – | – | – | 0.15 | – | – | -0.8 | 0.47 | – | 0.93 | 1 | -1 | –
CC(C)N(C(=O)C1CCOCC1)c1cc(F)c(Oc2ncc(Cn3nccn3)cc2C(F)(F)F)cc1C(=O)O | – | – | – | – | 0.83 | 0.91 | – | – | – | – | 0.93 | 0.61 | – | – | -0.36 | – | 0.98 | 0.7 | – | 0.24 | Growth Rate (Fibroblast; 12 h, replicate number 1): 0.85
CN1CCN(C(=O)c2ccc(N(C)c3ncc(C(F)(F)F)c(N[C@@H]4CCC[C@@H]4C(N)=O)n3)cc2)CC1.Cl | -0.99 | -0.02 | 0.35 | 0.9 | – | – | – | – | – | – | 1 | 0.56 | 1 | 0.91 | – | – | – | – | – | – | Growth Rate (HEK-293T; 6 h, replicate number 2): 0.56
N#Cc1ccc(C#CC[C@@H](C#N)NC(=O)[C@H]2CCCCN2)cc1F.O=C(O)C(F)(F)F | – | – | – | – | – | 0.86 | – | 0.78 | – | – | 0.73 | -0.1 | – | – | – | 0.95 | 0.73 | 0.94 | 0.86 | -1 | Growth Rate (Fibroblast; 24 h, replicate number 1): 0.92; Growth Rate (U2OS; 0 h, replicate number 2): 0.12
COc1cccc(-c2c(C)c(Cc3c(F)cccc3C(F)(F)F)c3n(c2=O)[C@@H]([C@@H](N)c2ccccc2)CS3)c1F | -0.66 | 0.73 | – | 0.87 | 0.81 | 0.48 | 0.52 | 0.75 | 0.62 | 0.37 | 0.93 | -0.28 | – | – | – | 0.4 | 0.91 | 0.51 | 0.92 | -1 | Growth Rate (Fibroblast; 24 h, replicate number 1): 0.83; Growth Rate (U2OS; 0 h, replicate number 2): -0.8; Growth Rate (HEK-293T; 12 h, replicate number 2): 0.52; Growth Rate (HEK-293T; 18 h, replicate number 1): 0.72; Growth Rate (HEK-293T; 18 h, replicate number 2): 0.5; Growth Rate (HEK-293T; 24 h, replicate number 1): 0.6; Growth Rate (HEK-293T; 24 h, replicate number 2): 0.46
